{"source": "patent EP1069130A1", "about": "“Moenomycin A Derivatives, their preparation, and use as antibacterial products” (HOECHST MARION ROUSSEL, priority 1999, dated 2001)", "test_system": "S. pyogenes A561", "experiment": "Method of dilutions in liquid medium (minimum inhibiting concentration)", "format": "cell-based", "conditions": "liquid nutritive medium, incubation twenty-four hours at 37° C, growth inhibition read by transillumination; for MIC: Streptococcus pyogenes, 24 h, read-out: minimum inhibiting concentrations (M.I.C.)", "description": "Method of dilutions in liquid medium.\nA series of tubes were prepared in which the same amount of sterile nutritive medium was distributed and increasing amounts of the product to be studied was distributed in each tube. Then, each tube was seeded with a bacterial strain and after incubationg for twenty-four hours in an oven at 37° C, the inhibition of growth was determined by transillumination which allowed the minimum inhibiting concentrations (M.I.C.) to be evaluated.\nProducts were tested on many strains inclusing : • S. aureus SG511 • S. aureus SG511 (+10 % serum) • S. aureus Exp54146 • S. pyogenes A561 • E. faecium M78L", "data": [{"smiles": "CC(=O)NC1C(OC2C(COC3OC(CO)C(O)C(O)C3O)OC(OC3C(OP(=O)(O)OCC(OCCNCC=C(C)CCCC(C)CCCC(C)CCCC(C)C)C(=O)O)OC(C(N)=O)C(C)(O)C3OC(N)=O)C(NC(C)=O)C2O)OC(C)C(OC2OC(C(N)=O)C(O)C(O)C2O)C1O", "note": "[Example 4, 3-carbamate 1-[(2R)-2-carboxy-2-[[(3,7,11,15-tetramethyl-2-hexadecenyl)amino]ethoxy]ethyl hydrogen phosphate] 0-β-D-glucopyranosyl-(1→6)-O-[O-(β-D-galactopyranuronamidosyl)-(1→4)-2-(acetylamino)-2,6-dideoxy-β-D-glucopyranosyl-(1→4]-O-2-(acetylamino)-2-deoxy-.beat.-D-glucopyranosyl-(1→2)-4-C-methyl-α-D-Glucopyranuronamide]", "values": [{"measurement": "minimum inhibiting concentrations (M.I.C.)", "value": "≤ 1,2 microgramme/ml"}]}, {"smiles": "CCCCCCCCCCCCc1ccc(NCCO[C@H](COP(=O)(O)O[C@H]2O[C@H](C(N)=O)[C@@](C)(O)[C@H](OC(N)=O)[C@H]2O[C@@H]2O[C@H](CO[C@@H]3O[C@H](CO)[C@@H](O)[C@H](O)[C@H]3O)[C@@H](O[C@@H]3O[C@H](C)[C@@H](O[C@@H]4O[C@H](C(N)=O)[C@H](O)[C@H](O)[C@H]4O)[C@H](O)[C@H]3NC(C)=O)[C@H](O)[C@H]2NC(C)=O)C(=O)O)cc1", "note": "[Example 5, 3-carbamate 1-[(2R)-2-carboxy-2-[[(4-dodecylphenyl))amino]ethoxy]ethyl hydrogen phosphate] 0-β-D-glucopyranosyl-(1→6)-O-[O-(β-D-galactopyranuronamidosyi)-(1→4)-2-(acetylamino)-2,6-dideoxy-β-D-glucopyranosyl-(1→4]-O-2-(acetylamino)-2-deoxy-.beat.-D-glucopyranosyl-(1→2)-4-C-methyl-α-D-Glucopyranuronamide]", "values": [{"measurement": "MIC", "value": "≤ 1.2", "unit": "mg/L"}]}, {"smiles": "C=CC(CCCCCCCCC)C(O)CO[C@H](COP(=O)(O)O[C@H]1O[C@H](C(N)=O)[C@@](C)(O)[C@H](OC(N)=O)[C@H]1O[C@@H]1O[C@H](CO[C@@H]2O[C@H](CO)[C@@H](O)[C@H](O)[C@H]2O)[C@@H](O[C@@H]2O[C@H](C)[C@@H](O[C@@H]3O[C@H](C(N)=O)[C@H](O)[C@H](O)[C@H]3O)[C@H](O)[C@H]2NC(C)=O)[C@H](O)[C@H]1NC(C)=O)C(=O)O", "note": "(stereo partly drawn) [Example 6]", "values": [{"measurement": "MIC", "value": "≤ 1.2", "unit": "mg/L"}]}]}
